Reference: article PMC6832219, “Synthesis of Novel Baicalein Amino Acid Derivatives and Biological Evaluation as Neuroprotective Agents” (Molecules, 2019)
Where two headings read alike, the source gives them in different places.

Legend:
H9C2 cells [1] = test: Toxicity on normal H9C2 cells (MTT assay); type: cell-based; conditions: MTT; for Survival Rate (%) / viability at 6.25 µM / viability at 12.5 µM / viability at 25 µM / viability at 50 µM: H9C2 cells; for IC50: normal H9C2 cells; for viability at 6.25 µM / viability at 12.5 µM / viability at 25 µM / viability at 50 µM: read-out: Survival Rate (%)
Procedure: To study cytotoxicity on normal cells, the cytotoxicity of compounds against normal H9C2 cells were tested.
(§1) The SH-SY5Y ([…]) and H9C2 ([…]) cell lines were obtained from the Chinese Academy of Medical Sciences and Peking Union Medical College. All of the cell lines were grown in dulbecco’s modified eagle medium (DMEM) with 10% (v/v) fetal bovine serum (FBS) and 1% (v/v) penicillin/streptomycin (Thermo Technologies, New York, NY, USA), under a humidified atmosphere containing 5% CO2 at 37 °C. The baicalein derivatives were dissolved in DMSO (Sigma, St. Louis, MO, USA) and added at various concentrations to the cell culture.
(§2) The protective effect of these compounds was evaluated on SH-SY5Y and H9C2 cell lines via the MTT method. The cells growing in the logarithmic phase were cultured in 96-well plates at a density 3 × 10^3 cells/well and incubated for 24 h. Then each well was treated with the required concentrations (50 µM concentrations, 25 µM concentrations, 12.5µM concentrations, 6.25 µM concentrations, and 3.125 µM concentrations) of baicalein derivatives, and incubated 36 h at 37 °C with 5% CO2. After that, the cells were induced by H2O2 (final concentration, […]) for 12 h. Control-differentiated cells were injected with new growth media at equal amounts. Before […] MTT solution (5 mg/mL) was added to each well, the cell culture fluid was discarded, and […] fresh cell culture fluid was added. The plate was incubated for a further 4 h at 37 °C. The cell supernatant medium was removed carefully, without disturbing the attached cells, and formazan crystals were solubilized by adding 150 μL DMSO into each well. The absorbance was measured at 490 nm with a plate reader (BIORAD 550 spectrophotometer, Bio-rad Life Science Development Ltd., Beijing, China). H2O2 was dissolved in DMEM medium. Wells without drugs were used as blanks. The EC50 values were defined as the concentrations that causes the maximum effect of 50%; IC50 values were defined as the concentration of compound which gives 50% growth inhibition, and were calculated using the GraphPad Prism 5. The proliferation rates of damaged SH-SY5Y cells were calculated in the following formula (1): [OD490 (compound) − OD490 (CoCl2)]/[OD490 (NGF) − OD490 (CoCl2)] × 100%(1) The EC50 values were using the equation −pEC50 = log Cmax − log 2 × (ΣP − 0.75 + 0.25Pmax + 0.25Pmin)(2) where Cmax is the maximum concentration, ΣP is the sum of proliferation rates, Pmax is the maximum value of the proliferation rate, and Pmin is the minimum value of the proliferation rate. Cell viability was expressed as a percentage of the control.
The inhibition rate was calculated in the following equation: % inhibition = 1 − (Sample group OD/Control group OD) × 100%(3)

injured SH-SY5Y cells = test: Protective effect against tert-butyl hydroperoxide-induced SH-SY5Y neurotoxicity cells (MTT assay); type: cell-based; conditions: for Proliferation Rate (%) / viability at 3.125 µM / viability at 6.25 µM / viability at 12.5 µM / viability at 25 µM / viability at 50 µM: injured SH-SY5Y cells; for EC50: tert-butyl hydroperoxide-induced SH-SY5Y neurotoxicity, read-out: EC50 for protecting injured SH-SY5Y cells; for viability at 3.125 µM / viability at 6.25 µM / viability at 12.5 µM / viability at 25 µM / viability at 50 µM: read-out: Proliferation Rate (%);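 for Proliferation Rate (%): 0% equals CoCl2-injured cells and 100% equals NGF-treated cells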
Procedure: The protective effects of baicalein derivatives in vitro was evaluated against tert-butyl, hydroperoxide-induced, SH-SY5Y neurotoxicity cells using an MTT assay. In addition, their toxicity evaluation was tested on normal H9C2 cells. The resulting proliferation rates (%) at different concentrations, as well as their 50% effective concentrations (EC50) for protecting damaged SH-SY5Y cells of the baicalein amino acid derivatives, are summarized in Table 2.
as §1, §2

H9C2 cells [2] = test: Toxicity on normal H9C2 cells (MTT assay); type: cell-based; conditions: for Survival Rate (%): 100 µM; for viability at 100 µM: read-out: Survival Rate (%)

Compound | IC50 (H9C2 cells [1]) | viability at 6.25 µM (H9C2 cells [1]; 6.25 µM) | viability at 12.5 µM (H9C2 cells [1]; 12.5 µM) | viability at 25 µM (H9C2 cells [1]; 25 µM) | viability at 50 µM (H9C2 cells [1]; 50 µM) | viability at 3.125 µM (injured SH-SY5Y cells; Homo sapiens, 3.125 µM) | viability at 6.25 µM (injured SH-SY5Y cells; Homo sapiens, 6.25 µM) | viability at 12.5 µM (injured SH-SY5Y cells; Homo sapiens, 12.5 µM) | viability at 25 µM (injured SH-SY5Y cells; Homo sapiens, 25 µM) | viability at 50 µM (injured SH-SY5Y cells; Homo sapiens, 50 µM) | EC50 (injured SH-SY5Y cells; Homo sapiens) | viability at 100 µM (H9C2 cells [2]) | melting point | other results
5,6-dihydroxy-4-oxo-2-phenyl-chroman-7-yl 2-{[(tert-butoxy)carbonyl]amino}-3-methyl-pentanoate [Compound 10] | > 100 µM |  |  |  |  |  |  |  |  |  |  |  |  | Survival Rate (%) (H9C2 cells [1]; 6.25 µM): 194.73%; Survival Rate (%) (H9C2 cells [1]; 12.5 µM): 179.84%; Survival Rate (%) (H9C2 cells [1]; 25 µM): 169.33%; Survival Rate (%) (H9C2 cells [1]; 50 µM): 152.13%; Proliferation Rate (%) (injured SH-SY5Y cells; 3.125 µM): 75.23%; Proliferation Rate (%) (injured SH-SY5Y cells; 6.25 µM): 77.21%; Proliferation Rate (%) (injured SH-SY5Y cells; 12.5 µM): 79.27%; Proliferation Rate (%) (injured SH-SY5Y cells; 25 µM): 74.55%; Proliferation Rate (%) (injured SH-SY5Y cells; 50 µM): 63.22%; EC50 (injured SH-SY5Y cells): 5.07 µM; Survival Rate (%) (H9C2 cells [2]): 141.70%
O=c1cc(-c2ccccc2)oc2cc(O)c(O)c(O)c12 [Baicalein, 5,6,7-trihydroxyflavone] | > 100 µM | 212% | 198% | 179% | 170% | 54.7% | 35.1% | 29.9% | 28.4% | 11.7% | 24.8 µM | 168% |  | 
O=C(NCCCCC(NC(=O)OCc1ccccc1)C(=O)Oc1cc2oc(-c3ccccc3)cc(=O)c2c(O)c1O)OCc1ccccc1 (stereo not drawn) [Compound 12, 5,6-dihydroxy-4-oxo-2-phenyl-4H-chromen-7-yl 2,6-di{[(benzyloxy)carbonyl]amino} hexanoate] | > 100 µM | 216% | 207% | 200% | 187% | 1.1% | 2.35% | 7.83% | 20.8% | 7.34% | 61.6 µM | 184% | 144.9 °C | 
CC(C)(C)C(NC(=O)OCc1ccccc1)C(=O)Oc1cc2oc(-c3ccccc3)cc(=O)c2c(O)c1OC(=O)C(NC(=O)OCc1ccccc1)C(C)(C)C (stereo not drawn) [Compound 2] | > 100 µM | 213% | 150% | 133% | 112% | 45.1% | 48.2% | 81% | 107% | 94.2% | 4.79 µM | 108% | 195.8 °C | 
CCC(C)C(NC(=O)OCc1ccccc1)C(=O)Oc1cc2oc(-c3ccccc3)cc(=O)c2c(O)c1O (stereo not drawn) [Compound 7, 5,6-dihydroxy-4-oxo-2-phenyl-4H-chromen-7-yl 2-{[(benzyloxy)carbonyl]amino}-3-methyl-pentanoate] | > 100 µM | 152% | 147% | 145% | 139% | 63.6% | 69.7% | 79.8% | 79.8% | 72.2% | 5.24 µM | 124% | 155.7 °C | 
CC(C)(C)C(NC(=O)OCc1ccccc1)C(=O)Oc1c(O)cc2oc(-c3ccccc3)cc(=O)c2c1O (stereo not drawn) [Compound 3, 5,7-dihydroxy-4-oxo-2-phenyl-4H-chromen-6-yl 2-{[(benzyloxy)carbonyl]amino}-3,3-dimethylbutanoate] | > 100 µM | 144% | 137% | 135% | 132% | 15.3% | 14.8% | 8.1% | 0.15% | -0.18% | 62.4 µM | 104% | 170.1 °C | 
CN(CC(=O)Oc1cc2oc(-c3ccccc3)cc(=O)c2c(O)c1OC(=O)CN(C)C(=O)OC(C)(C)C)C(=O)OC(C)(C)C [Compound 13, 7-[(2-{[(tert-butoxy)carbonyl](methyl)amino}acetyl)oxy]-5-hydroxy-4-oxo-2-phenyl-4H-chromen-6-yl 2-{[(tert-butoxy)carbonyl](methyl)amino}acetate] | > 100 µM | 215% | 166% | 152% | 132% | 40.1% | 92.1% | 91.5% | 73% | 65.9% | 5.42 µM | 123% | 205.1 °C | 
O=C(CC(NC(=O)OCc1ccccc1)C(=O)Oc1c(O)cc2oc(-c3ccccc3)cc(=O)c2c1O)OCc1ccccc1 (stereo not drawn) [Compound 9, 1-benzyl 5,7-dihydroxy-4-oxo-2-phenyl-4H-chromen-6-yl 3-{[(benzyloxy)carbonyl]amino} butanedioate] | > 100 µM | 153% | 133% | 130% | 115% | 28.1% | 98.2% | 79.6% | 101% | 84.2% | 4.47 µM | 107% | 100.7 °C | 
CC1=NN(c2ccccc2)C(=O)C1 [Edaravone, reference compound] |  |  |  |  |  | 61.4% | 85.8% | 76.1% | 69.9% | 60.7% | 5.62 µM |  |  | 
CC(C)(C)OC(=O)NC(Cc1ccccc1)C(=O)Oc1c(O)cc2oc(-c3ccccc3)cc(=O)c2c1O (stereo not drawn) [Compound 6, 5,7-dihydroxy-4-oxo-2-phenyl-4H-chromen-6-yl 2-{[(tert-butoxy)carbonyl]amino}-3-phenylpropanoate] | > 100 µM | 157% | 154% | 154% | 137% | 8.61% | 20% | 24.8% | 21.6% | 16.7% | 42 µM | 122% |  | 
1-tert-butyl 2-(5,7-dihydroxy-4-oxo-2-phenyl-chroman-6-yl) pyrrolidine-1,2-dicarboxylate [Compound 11] | 95.2 µM |  |  |  |  |  |  |  |  |  |  |  |  | Survival Rate (%) (H9C2 cells [1]; 6.25 µM): 70.98%; Survival Rate (%) (H9C2 cells [1]; 12.5 µM): 67.32%; Survival Rate (%) (H9C2 cells [1]; 25 µM): 61.98%; Survival Rate (%) (H9C2 cells [1]; 50 µM): 60.67%; Proliferation Rate (%) (injured SH-SY5Y cells; 3.125 µM): 47.94%; Proliferation Rate (%) (injured SH-SY5Y cells; 6.25 µM): 86.25%; Proliferation Rate (%) (injured SH-SY5Y cells; 12.5 µM): 78.16%; Proliferation Rate (%) (injured SH-SY5Y cells; 25 µM): 74.48%; Proliferation Rate (%) (injured SH-SY5Y cells; 50 µM): 64.80%; EC50 (injured SH-SY5Y cells): 5.82 µM; Survival Rate (%) (H9C2 cells [2]): 45.75%
